Test results from patent US10975119B2, “Selective cysteine protease inhibitors and uses thereof” (Genesis Technologies Limited, priority 2011, dated 2021).
Where “and” joins values, the source holds several entries; their conditions need not be identical. Identical values can stand only once. Counter-ions that a name gives are not always drawn. Like-named read-outs stand apart in the source and are kept apart here.

Tests used:
Format in all cases: biochemical
Caspase-1 = target: T1, Caspase-1 (Homo sapiens, UniProt P29466); experiment: Caspase-1 inhibitor screening assay (BioVision kit, YVAD-AFC); conditions: for inhibition at 10 µM: read-out: % Inhibition at 10 uM Casp1; for inhibition at 100 µM: read-out: % Inhibition at 100 uM Casp1
T1 construct: mixing the compounds with the respective active caspases; purchased BioVision K151-100
T1 sequence (P29466 120-297 limits assumed): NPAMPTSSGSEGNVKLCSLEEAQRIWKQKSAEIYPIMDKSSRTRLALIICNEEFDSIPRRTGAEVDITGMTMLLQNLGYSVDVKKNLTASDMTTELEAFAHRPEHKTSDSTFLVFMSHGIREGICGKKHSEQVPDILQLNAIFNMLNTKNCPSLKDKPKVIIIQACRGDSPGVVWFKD
T1 sequence (P29466 317-404 limits assumed): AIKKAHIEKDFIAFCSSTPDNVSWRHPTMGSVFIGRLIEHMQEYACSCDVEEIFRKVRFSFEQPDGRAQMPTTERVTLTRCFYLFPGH
Description: (§1) The efficacy of an array of compounds as an inhibitor of the activity of Caspases 1 through 10 were assessed by using the respective Caspase Inhibitor Drug Screening Kits (Caspase-1 Catalog #: K151-100, Caspase-2 Catalog #: K152-100, Caspase-3 Catalog #: K153-100, Caspase-4 Catalog #: K154-100, Caspase-5 Catalog #: K155-100, Caspase-6 Catalog #: K156-100, Caspase-7 Catalog #: K157-100, Caspase-8 Catalog #: K158-100, Caspase-9 Catalog #: K159-100, Caspase-10 Catalog #: K160-100, BioVision) following the instructions of the manufacturer. […] Active caspases cleaved their respective synthetic substrates to release free AFC, which was then quantified by fluorometry.
(§2) Briefly, the compounds were first tested at 2 concentrations (10 uM and 100 uM final) to determine if there is a hit. […] Each condition was tested in duplicates. […] For some samples, a smaller range of concentrations was tested depending on the % Inhibition results at 10 uM and 100 uM. Results were summarized in Tables 2, 3, and 4 herein after. Table 2 represents the IC50 values (uM) of the test compounds as inhibitors of the activity of the various caspases.
(§3) (*) RFU (no inhibitor control)—RFU (compound at a specific concentration)
(§4) RFU (no inhibitor control)

Caspase-3 = target: T2, Caspase-3 (Homo sapiens, UniProt P42574); experiment: Caspase-3 inhibitor screening assay (BioVision kit, DEVD-AFC); conditions: for inhibition at 10 µM: read-out: % Inhibition at 10 uM Casp3; for inhibition at 100 µM: read-out: % Inhibition at 100 uM Casp3
T2 construct: mixing the compounds with the respective active caspases; purchased BioVision K153-100
T2 sequence (P42574 29-175 limits assumed): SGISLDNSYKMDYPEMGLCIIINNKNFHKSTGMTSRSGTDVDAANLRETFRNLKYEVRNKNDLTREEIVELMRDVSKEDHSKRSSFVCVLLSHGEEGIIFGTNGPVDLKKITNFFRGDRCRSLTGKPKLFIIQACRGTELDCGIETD
T2 sequence (P42574 176-277 limits assumed): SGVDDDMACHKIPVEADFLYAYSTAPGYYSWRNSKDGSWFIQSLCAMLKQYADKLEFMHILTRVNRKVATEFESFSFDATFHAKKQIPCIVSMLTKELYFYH
Description: as §1, §2, §3, §4

Caspase-5 = target: T3, Caspase-5 (Homo sapiens, UniProt P51878); experiment: Caspase-5 inhibitor screening assay (BioVision kit, WEHD-AFC); conditions: for inhibition at 10 µM: read-out: % Inhibition at 10 uM Casp5; for inhibition at 100 µM: read-out: % Inhibition at 100 uM Casp5
T3 construct: mixing the compounds with the respective active caspases; purchased BioVision K155-100
T3 sequence (P51878 137-327 limits assumed): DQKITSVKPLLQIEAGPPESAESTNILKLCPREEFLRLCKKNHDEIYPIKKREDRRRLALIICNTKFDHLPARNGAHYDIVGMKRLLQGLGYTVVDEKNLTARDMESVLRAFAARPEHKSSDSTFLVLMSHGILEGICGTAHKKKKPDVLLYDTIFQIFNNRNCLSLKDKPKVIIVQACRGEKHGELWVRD
T3 sequence (P51878 347-434 limits assumed): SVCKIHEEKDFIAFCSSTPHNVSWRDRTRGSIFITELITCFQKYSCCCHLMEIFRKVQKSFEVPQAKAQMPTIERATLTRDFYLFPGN
Description: as §1, §2, §3, §4

Caspase-8 = target: T4, Caspase-8 (Homo sapiens, UniProt Q14790); experiment: Caspase-8 inhibitor screening assay (BioVision kit, IETD-AFC); conditions: for inhibition at 10 µM: read-out: % Inhibition at 10 uM Casp8; for inhibition at 100 µM: read-out: % Inhibition at 100 uM Casp8
T4 construct: mixing the compounds with the respective active caspases; purchased BioVision K158-100
Description: as §1, §2, §3, §4

Caspases 1 through 10 = experiment: Caspase-1 to Caspase-10 inhibitor screening, profile across the panel
Description: as §1, §2, §3, §4

[1] = read-out: potency (IC50) against caspase-1
[2] = read-out: potency (IC50) against caspase-3

T4 sequence (Q14790 217-374 limits assumed): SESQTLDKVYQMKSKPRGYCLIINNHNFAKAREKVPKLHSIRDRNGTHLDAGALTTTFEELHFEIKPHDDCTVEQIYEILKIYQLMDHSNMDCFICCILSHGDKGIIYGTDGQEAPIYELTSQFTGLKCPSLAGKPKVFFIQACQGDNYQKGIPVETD
T4 sequence (Q14790 385-479 limits assumed): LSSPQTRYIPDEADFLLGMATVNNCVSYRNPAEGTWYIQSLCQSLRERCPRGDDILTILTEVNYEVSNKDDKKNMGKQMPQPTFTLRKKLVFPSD

| Compound | inhibition at 10 µM (Caspase-1) [%] | inhibition at 100 µM (Caspase-1) [%] | IC50 (Caspase-1; read-out: IC50 Casp1) [µM] | IC50 (Caspase-1; [1]) [µM] | inhibition at 10 µM (Caspase-3) [%] | inhibition at 100 µM (Caspase-3) [%] | IC50 (Caspase-3; read-out: IC50 Casp3) [µM] | inhibition at 10 µM (Caspase-5) [%] | inhibition at 100 µM (Caspase-5) [%] | IC50 (Caspase-5; read-out: IC50 Casp5) [µM] | IC50 (Caspase-5; read-out: potency (IC50) against caspase-5) [µM] | inhibition at 10 µM (Caspase-8) [%] | inhibition at 100 µM (Caspase-8) [%] | IC50 (Caspase-8; read-out: IC50 Casp8) | IC50 (Caspase-3; [2]) [µM] | IC50 (Caspase-8; read-out: potency (IC50) against caspase-8) [µM] | inhibition profile across caspases, in words (Caspases 1 through 10) | potency against caspase-3 relative to compound 26, in words (Caspase-3; replacement of Pro at P2 of compound 26) |
| --- | --- | --- | --- | --- | --- | --- | --- | --- | --- | --- | --- | --- | --- | --- | --- | --- | --- | --- |
| CC(C)(C)[C@H](NC(=O)c1ccc(N)c(Cl)c1)C(=O)N1CCCC1C(=O)N[C@H](/C=C/S(C)(=O)=O)CC(=O)O (stereo in doubt) [Compound 14, 4-amino-3-chlorobenzene carbonyl-t-Leu-Pro-Asp methyl vinyl sulfone] | 99 | 100 | 0.02 | 0.019 | 7 | 18 | > 100 | 96 | 100 | 0.56 | 0.563 | 46 | 95 | 12.8 µM and 12.9 µM | – | – | very strong inhibitory activity towards pro-inflammatory Caspases | – |
| CC(C)(C)[C@H](NC(=O)[C@H](CC(=O)O)NC(=O)OCc1ccccc1)C(=O)N1CCCC1C(=O)N[C@H](/C=C/S(C)(=O)=O)CC(=O)O (stereo in doubt) [Compound 26, Z-Asp-t-Leu-Pro-Asp-methyl vinyl sulfone] | 69 | 99 | 4.29 | – | 98 | 100 | 0.12 | 50 | 91 | 9.88 | – | 82 | 99 | 2.23 µM | 0.123 | – | high inhibitory activity towards the effector (executioner) Caspases: Caspase-3 and -7 | – |
| CS(=O)(=O)/C=C/[C@H](CC(=O)O)NC(=O)[C@H]1CCCN1C(=O)[C@@H](NC(=O)[C@H](CC(=O)O)NC(=O)OCc1ccccc1)c1ccccc1 [Compound 30, Z-Asp-Phenylglycine-Pro-Asp-methyl vinyl sulfone] | 55 | 92 | 8 | – | 68 | 95 | 3.4 | 8 | 50 | ~100 | – | 22 | 79 | 32.5 µM | 3.41 | – | – | – |
| CC(C)(C)[C@@H](NC(=O)[C@H](CC(=O)O)NC(=O)OCc1ccccc1)C(=O)N1CC[C@@H]1C(=O)N[C@H](/C=C/S(C)(=O)=O)CC(=O)O [Compound 32, Z-Asp-t-Leu-(Azetidine-2-carbonyl)-Asp-methyl vinyl sulfone] | 44 | 86 | 13.3 | – | 96 | 100 | 0.28 | 23 | 77 | 35.2 | – | 69 | 98 | 4.08 µM | – | – | – | did not affect the potency against caspase-3 |
| CC(C)[C@H](NC(=O)[C@@H](N)Cc1ccc(O)cc1)C(=O)N[C@@H](C)C(=O)N[C@H](/C=C/S(C)(=O)=O)CC(=O)O [Compound 42, Tyr-Val-Ala-Asp methyl vinyl sulfone] | 26 | 72 | 33.8 | – | 0 | 0 | > 100 | 43 | 93 | 12.4 | – | 12 | 30 | > 100 µM | – | – | – | – |
| CCOC(=O)/C=C/[C@@H](N)CC(=O)O [Compound 44, Asp ethyl vinyl ester tosyl salt] | 0 | 0 | > 100 | – | 0 | 0 | > 100 | 0 | 0 | > 100 | – | 0 | 7 | > 100 µM | – | – | – | – |

Now from value to molecule, other results behind:

| inhibition at 10 µM (Caspase-1) [%] | inhibition at 100 µM (Caspase-1) [%] | IC50 (Caspase-1; read-out: IC50 Casp1) [µM] | IC50 (Caspase-1; [1]) [µM] | inhibition at 10 µM (Caspase-3) [%] | inhibition at 100 µM (Caspase-3) [%] | IC50 (Caspase-3; read-out: IC50 Casp3) [µM] | inhibition at 10 µM (Caspase-5) [%] | inhibition at 100 µM (Caspase-5) [%] | IC50 (Caspase-5; read-out: IC50 Casp5) [µM] | IC50 (Caspase-5; read-out: potency (IC50) against caspase-5) [µM] | inhibition at 10 µM (Caspase-8) [%] | inhibition at 100 µM (Caspase-8) [%] | IC50 (Caspase-8; read-out: IC50 Casp8) | IC50 (Caspase-3; [2]) [µM] | IC50 (Caspase-8; read-out: potency (IC50) against caspase-8) [µM] | Compound | inhibition profile across caspases, in words (Caspases 1 through 10) | potency against caspase-3 relative to compound 26, in words (Caspase-3; replacement of Pro at P2 of compound 26) |
| --- | --- | --- | --- | --- | --- | --- | --- | --- | --- | --- | --- | --- | --- | --- | --- | --- | --- | --- |
| 75 | 94 | 3.8 | – | 98 | 100 | 0.09 | 14 | 50 | 25.4 | – | 0 | 33 | > 100 µM | – | – | CC(C)[C@H](NC(=O)[C@H](Cc1cn(C)c2ccccc12)NC(=O)[C@H](CC(=O)O)NC(=O)OCc1ccccc1)C(=O)N[C@H](/C=C/S(C)(=O)=O)CC(=O)O [Compound 36, Z-Asp-Trp(N-Me)-Val-Asp-methyl vinyl sulfone] | – | – |
| 81 | 97 | 2.7 | – | 63 | 89 | 6.96 | 32 | 81 | 19.6 | – | 97 | 100 | 0.66 µM | – | – | CCC(C)[C@H](NC(=O)[C@H](CCC(=O)O)NC(=O)[C@@H](NC(=O)OCc1ccccc1)C(C)C)C(=O)N[C@H](/C=C/S(C)(=O)=O)CC(=O)O (stereo partly drawn) [Compound 38, Z-Val-Glu-Ile-Asp-methyl vinyl sulfone] | – | – |
| 99 | 100 | – | 0.026 | 63 | 94 | 6.55 | 95 | 100 | 0.75 | – | 61 | 96 | 5.93 µM | – | – | CC(C)[C@H](NC(=O)[C@H](CCC(=O)O)NC(=O)[C@H](Cc1c[nH]c2ccccc12)NC(=O)OCc1ccccc1)C(=O)N[C@H](/C=C/S(C)(=O)=O)CC(=O)O [Compound 40, Z-Trp-Glu-Val-Asp-methyl vinyl sulfone] | – | – |
| 0 | 0 | > 100 | – | 39 | 88 | 15.2 | 0 | 0 | > 100 | – | 9 | 10 | > 100 µM | – | – | CC(C)[C@H](NC(=O)[C@@H](NC(=O)[C@H](CC(=O)O)NC(=O)OCc1ccccc1)c1ccccc1)C(=O)N[C@H](/C=C/S(C)(=O)=O)CCC(=O)O [Compound 84, Z-Asp-Phg-Val-Glu methyl vinyl sulfone] | – | – |
| – | – | 1 | – | – | – | 2.78 | – | – | 8.58 | – | – | – | 0.08 µM | – | 0.079 | CCOC(=O)/C=C/[C@H](CC(=O)O)NC(=O)[C@@H](NC(=O)[C@H](CCC(=O)O)NC(=O)[C@@H](NC(=O)OCc1ccccc1)C(C)C)c1ccccc1 [Compound 126, Z-Val-Glu-Phg-Asp-Ethyl Vinyl ester] | – | – |
